# According to ChEMBL document CHEMBL4270599, “Synthesis of a 3'-C-ethynyl-β-d-ribofuranose purine nucleoside library: Discovery of C7-deazapurine analogs as potent antiproliferative nucleosides” (Eur J Med Chem, 2018):
# Columns and labels:
# Format in all cases: functional
# HCC 2998 [1] = assay: Growth inhibition of human HCC2998 cells assessed as cell growth at 10^-7 M incubated for 48 hrs by sulforhodamine B assay relative to control; settings: HCC 2998, 48 h, read-out: Activity
# CCRF-CEM = assay: Growth inhibition of human CCRF-CEM cells assessed as cell growth at 10^-8 M incubated for 48 hrs by sulforhodamine B assay relative to control; settings: read-out: Activity
# OVCAR-8 = assay: Growth inhibition of human OVCAR8 cells assessed as cell growth at 10^-6 M incubated for 48 hrs by sulforhodamine B assay relative to control; settings: OVCAR-8, 48 h, read-out: Activity
# HT-29 = assay: Growth inhibition of human HT-29 cells assessed as cell growth at 10^-4 M incubated for 48 hrs by sulforhodamine B assay relative to control; settings: HT-29, 48 h, read-out: Activity
# NCI-H322M [2] = assay: Growth inhibition of human NCI-H322M cells assessed as cell growth at 10^-5 M incubated for 48 hrs by sulforhodamine B assay relative to control; settings: read-out: Activity
# NCI-H322M [3] = assay: Cytotoxicity against human NCI-H322M cells after 48 hrs by SRB assay; settings: for GI50: read-out: GI50; for TGI: read-out: TGI; for CC50: read-out: pLC50 (the source's name) (converted)
# SK-MEL-2 [4] = assay: Growth inhibition of human SK-MEL-2 cells assessed as cell growth at 10^-7 M incubated for 48 hrs by sulforhodamine B assay relative to control; settings: SK-MEL-2, 48 h, read-out: Activity
# K562 [5] = assay: Growth inhibition of human K562 cells assessed as cell growth at 10^-5 M incubated for 48 hrs by sulforhodamine B assay relative to control; settings: K562, 48 h, read-out: Activity
# UO-31 [6] = assay: Growth inhibition of human UO31 cells assessed as cell growth at 10^-7 M incubated for 48 hrs by sulforhodamine B assay relative to control; settings: UO-31, 48 h, read-out: Activity
# ACHN = assay: Growth inhibition of human ACHN cells assessed as cell growth at 10^-6 M incubated for 48 hrs by sulforhodamine B assay relative to control; settings: read-out: Activity
# BT-549 = assay: Growth inhibition of human BT549 cells assessed as cell growth at 10^-8 M incubated for 48 hrs by sulforhodamine B assay relative to control; settings: BT-549, 48 h, read-out: Activity
# HCC 2998 [7] = assay: Cytotoxicity against human HCC2998 cells after 48 hrs by SRB assay; settings: HCC 2998, 48 h; for GI50: read-out: GI50; for TGI: read-out: TGI
# HCT-15 = assay: Cytotoxicity against human HCT15 cells after 48 hrs by SRB assay; settings: HCT-15, 48 h; for GI50: read-out: GI50; for CC50: read-out: LC50 (the source's name)
# SR = assay: Growth inhibition of human SR cells assessed as cell growth at 10^-6 M incubated for 48 hrs by sulforhodamine B assay relative to control; settings: read-out: Activity
# NCI-H23 = assay: Growth inhibition of human NCI-H23 cells assessed as cell growth at 10^-6 M incubated for 48 hrs by sulforhodamine B assay relative to control; settings: NCI-H23, 48 h, read-out: Activity
# NCI-H226 = assay: Cytotoxicity against human NCI-H226 cells after 48 hrs by SRB assay; settings: NCI-H226, 48 h; for GI50: read-out: GI50
# UO-31 [8] = assay: Cytotoxicity against human UO31 cells after 48 hrs by SRB assay; settings: UO-31, 48 h; for GI50: read-out: GI50; for TGI: read-out: TGI
# SN12C = assay: Growth inhibition of human SN12C cells assessed as cell growth at 10^-8 M incubated for 48 hrs by sulforhodamine B assay relative to control; settings: read-out: Activity
# K562 [9] = assay: Cytotoxicity against human K562 cells after 48 hrs by SRB assay; settings: K562, 48 h; for GI50: read-out: GI50
# MOLT-4 = assay: Growth inhibition of human MOLT4 cells assessed as cell growth at 10^-8 M incubated for 48 hrs by sulforhodamine B assay relative to control; settings: MOLT-4, 48 h, read-out: Activity
# K562 [10] = assay: Growth inhibition of human K562 cells assessed as cell growth at 10^-4 M incubated for 48 hrs by sulforhodamine B assay relative to control; settings: K562, 48 h, read-out: Activity
# M14 = assay: Growth inhibition of human M14 cells assessed as cell growth at 10^-5 M incubated for 48 hrs by sulforhodamine B assay relative to control; settings: M14, 48 h, read-out: Activity
# T47D = assay: Growth inhibition of human T47D cells assessed as cell growth at 10^-7 M incubated for 48 hrs by sulforhodamine B assay relative to control; settings: read-out: Activity
# OVCAR-4 = assay: Cytotoxicity against human OVCAR4 cells after 48 hrs by SRB assay; settings: OVCAR-4, 48 h; for GI50: read-out: GI50
# MCF7 [11] = assay: Growth inhibition of human MCF7 cells assessed as cell growth at 10^-8 M incubated for 48 hrs by sulforhodamine B assay relative to control; settings: MCF7, 48 h, read-out: Activity
# SK-MEL-28 = assay: Growth inhibition of human SK-MEL-28 cells assessed as cell growth at 10^-7 M incubated for 48 hrs by sulforhodamine B assay relative to control; settings: SK-MEL-28, 48 h, read-out: Activity
# SF-295 = assay: Growth inhibition of human SF295 cells assessed as cell growth at 10^-7 M incubated for 48 hrs by sulforhodamine B assay relative to control; settings: SF-295, 48 h, read-out: Activity
# SK-MEL-2 [12] = assay: Growth inhibition of human SK-MEL-2 cells assessed as cell growth at 10^-6 M incubated for 48 hrs by sulforhodamine B assay relative to control; settings: SK-MEL-2, 48 h, read-out: Activity
# MCF7 [13] = assay: Growth inhibition of human MCF7 cells assessed as cell growth at 10^-4 M incubated for 48 hrs by sulforhodamine B assay relative to control; settings: MCF7, 48 h, read-out: Activity
# MDA-MB-435 = assay: Growth inhibition of human MDA-MB-435 cells assessed as cell growth at 10^-5 M incubated for 48 hrs by sulforhodamine B assay relative to control; settings: MDA-MB-435, 48 h, read-out: Activity
# HL-60(TB) = assay: Growth inhibition of human HL-60(TB) cells assessed as cell growth at 10^-6 M incubated for 48 hrs by sulforhodamine B assay relative to control; settings: HL-60, 48 h, read-out: Activity
# 786-0 = assay: Growth inhibition of human 786-0 cells assessed as cell growth at 10^-6 M incubated for 48 hrs by sulforhodamine B assay relative to control; settings: 786-0, 48 h, read-out: Activity
# U-251 = assay: Growth inhibition of human U251 cells assessed as cell growth at 10^-6 M incubated for 48 hrs by sulforhodamine B assay relative to control; settings: U-251, 48 h, read-out: Activity
# [14] = read-out: pLC50 (the source's name) (converted)
# [15] = read-out: LC50 (the source's name)
compound,measurement,setting,value
C#C[C@@]1(O)[C@@H](CO)O[C@@H](n2cc(Br)c3c(N)ncnc32)[C@@H]1O,growth at 0.1 µM,HCC 2998 [1],73 to 80%
same,growth at 0.01 µM,CCRF-CEM,96 to 100%
same,growth at 1 µM,OVCAR-8,1 to 4%
same,growth at 100 µM,HT-29,1 to 2%
same,growth at 10 µM,NCI-H322M [2],-12%
same,GI50,NCI-H322M [3],326 to 372 nM
same,TGI,NCI-H322M [3],4.74 to 5.41 µM
same,CC50,NCI-H322M [3],> 100 µM
same,growth at 0.1 µM,SK-MEL-2 [4],48 to 75%
same,growth at 10 µM,K562 [5],6 to 7%
same,growth at 0.1 µM,UO-31 [6],55 to 57%
same,growth at 1 µM,ACHN,8%
same,growth at 0.01 µM,BT-549,89 to 103%
same,GI50,HCC 2998 [7],169 to 240 nM
same,TGI,HCC 2998 [7],525 to 1250 nM
same,CC50,HCC 2998 [7]; [14],> 100 µM
same,GI50,HCT-15,172 to 707 nM
same,CC50,HCT-15,> 100 µM
same,TGI,HCT-15; read-out: TGI,> 100 µM
same,TGI,HCT-15; read-out: pTGI (converted),> 100 µM
same,growth at 1 µM,SR,7 to 9%
same,growth at 1 µM,NCI-H23,7 to 13%
same,GI50,NCI-H226,373 to 4420 nM
same,TGI,NCI-H226; read-out: TGI,6.37 to 100 µM
same,CC50,NCI-H226; [14],> 100 µM
same,GI50,UO-31 [8],115 to 130 nM
same,TGI,UO-31 [8],315 to 1500 nM
same,CC50,UO-31 [8]; [14],> 100 µM
same,growth at 0.01 µM,SN12C,76 to 96%
same,GI50,K562 [9],41.1 to 90 nM
same,CC50,K562 [9]; [15],> 100 µM
same,TGI,K562 [9]; read-out: TGI,> 100 µM
same,TGI,K562 [9]; read-out: pTGI,> 100 µM
same,growth at 0.01 µM,MOLT-4,86 to 95%
same,growth at 100 µM,K562 [10],7%
same,growth at 10 µM,M14,6 to 11%
same,growth at 0.1 µM,T47D,5 to 32%
same,GI50,OVCAR-4,296 to 452 nM
same,CC50,OVCAR-4; [15],> 100 µM
same,TGI,OVCAR-4; read-out: TGI,> 100 µM
same,TGI,OVCAR-4; read-out: pTGI (converted),> 100 µM
same,growth at 0.01 µM,MCF7 [11],60 to 74%
same,growth at 0.1 µM,SK-MEL-28,77 to 94%
same,growth at 0.1 µM,SF-295,60 to 78%
C#C[C@@]1(O)[C@@H](CO)O[C@@H](n2cc(I)c3c(N)ncnc32)[C@@H]1O,growth at 0.1 µM,HCC 2998 [1],70 to 75%
same,growth at 0.01 µM,CCRF-CEM,97%
same,growth at 1 µM,OVCAR-8,3 to 5%
same,GI50,NCI-H322M [3],405 to 683 nM
same,TGI,NCI-H322M [3],7.49 to 42.8 µM
same,CC50,NCI-H322M [3],> 100 µM
same,growth at 0.1 µM,SK-MEL-2 [4],63 to 77%
same,growth at 10 µM,K562 [5],7%
same,growth at 0.1 µM,UO-31 [6],46 to 50%
same,growth at 1 µM,SK-MEL-2 [12],11 to 24%
same,growth at 1 µM,ACHN,28%
same,growth at 0.01 µM,BT-549,86 to 96%
same,GI50,HCC 2998 [7],221 to 267 nM
same,CC50,HCC 2998 [7]; [15],> 100 µM
same,TGI,HCC 2998 [7],2600 to 3470 nM
same,GI50,HCT-15,107 to 175 nM
same,CC50,HCT-15,> 100 µM
same,TGI,HCT-15; read-out: TGI,> 100 µM
same,TGI,HCT-15; read-out: pTGI (converted),> 100 µM
same,growth at 1 µM,SR,21 to 24%
same,growth at 1 µM,NCI-H23,28 to 33%
same,GI50,NCI-H226,1350 to 2180 nM
same,CC50,NCI-H226; [15],> 100 µM
same,TGI,NCI-H226; read-out: TGI,> 100 µM
same,TGI,NCI-H226; read-out: pTGI (converted),> 100 µM
same,GI50,UO-31 [8],79.1 to 103 nM
same,CC50,UO-31 [8]; [15],> 100 µM
same,TGI,UO-31 [8],3070 to 3300 nM
same,growth at 0.01 µM,SN12C,85 to 90%
same,GI50,K562 [9],59.5 to 69 nM
same,TGI,K562 [9]; read-out: TGI,> 100 µM
same,CC50,K562 [9]; [14],> 100 µM
same,TGI,K562 [9]; read-out: pTGI,> 100 µM
same,growth at 0.01 µM,MOLT-4,75 to 83%
same,growth at 100 µM,K562 [10],7 to 8%
same,growth at 100 µM,MCF7 [13],1 to 3%
same,GI50,OVCAR-4,563 to 1160 nM
same,TGI,OVCAR-4; read-out: TGI,> 100 µM
same,CC50,OVCAR-4; [14],> 100 µM
same,TGI,OVCAR-4; read-out: pTGI (converted),> 100 µM
same,growth at 0.01 µM,MCF7 [11],35 to 54%
same,growth at 10 µM,MDA-MB-435,3 to 4%
same,growth at 1 µM,HL-60(TB),-38%
same,growth at 0.1 µM,SK-MEL-28,86 to 88%
same,growth at 1 µM,786-0,13 to 23%
same,growth at 0.1 µM,SF-295,63 to 76%
same,growth at 1 µM,U-251,6 to 9%
